Square brackets hold non-standard residues; d marks the D form. Peptide text beside a SMILES is read from it. 2Nal = N[C@@H](Cc1ccc2ccccc2c1)C(=O)O
Key:
[1] = Pharmacokinetics of c2 after oral administration to Sprague Dawley rats (LC MS/MS); format: in vivo; conditions: 100 mg/kg po
Method: Rat studies were performed under contract to the accredited animal research establishment ICP Firefly Pty Ltd. (Alexandria, NSW, Australia; Ref. No AW96/042, NSW Dep’t Primary Industries) with ethics approval from the ICP Firefly animal ethics committee. Briefly, male rats (Sprague Dawley, n = 5 / group) were treated with c2 (single dose 100 mg/kg suspended in 0.1% carboxymethylcellulose, po) and housed in metabolic cages. Animals were sacrificed at 1, 2, 8 or 24 h, blood and tissue samples taken for further analysis, with urine and faeces collected for 1, 6 and 16 hours respectively. Following extraction, c2 concentration in plasma was measured using a validated LC MS/MS assay (limit of detection 7.5 ng/mL and lower limit of quantitation 15 ng/mL in plasma, accuracy 98% and imprecision 12.7% at […]).

[2] = 28-day oral toxicity study: haematology analysis; format: in vivo, male Sprague Dawley rats; conditions: for MCHC: calculated value
Method: Blood analyse s (haematology and biochemistry) w ere performed on all animals on Day 29 (main groups) or Day 43 (recovery groups). Approximately 4 mL of blood was taken from ea ch animal by cardiac puncture using a 10 mL syringe and 21-gauge needle. The procedure involved anaesthetising by intraperitoneal injection of sodi um pentobarbitone using a 2 mL sterile plastic syringe attached to a 26-gauge needle (Terumo).
For each blood sampling, the blood was divided into two aliquots: (i) one was placed into a tube containing EDTA (for whole blood and EDTA plasma), (ii) one aliquot into a Li-heparin tube.
3.9.1. Haematology analysis
The following parameters were analysed: Red blood cell (RBC), haemoglobin (Hb), haematocrit (Hct), mean corpuscular volume (MCV), mean corpuscular haemoglobin (MCH), mean corpuscular haemoglobin concentration (MCHC), platelet count (PLT), mean platelet volume (MPV), white blood count (WBC), neutrophil (Neut), lymphocyte (Lymph), monocytes (Mono), eosinophil (Eos), basophil (Baso).
Results and methods of analysis were attached in an appendix to the report (Appendix D Haematology and Biochemistry). Blood smear s for cell morphology were prepared. By convention only abnormal findings on smear evaluation were reported. […]
Haematology and Biochemistry). […]
(Appendix C Study Data Spreadsheets). […]

[3] = Toxicity and serum enzyme levels in PCa xenograft model mice; format: in vivo
Method: Fig. 1 Derived from the structure of hGIIA, cF and c2 are orally absorbed, cell permeable and non-toxic. a Structure of hGIIA showing disulphide bonds (yellow) and the location of the peptide sequence ^70FLSYK^74 (cyan), which was cyclised to produce pentapeptide cF, then modified to produce c2. b Plasma concentrations of tritiated cF (red) and c2 (blue) following subcutaneous (sc) administration (circles) or oral (po) administration (squares) at 5 mg/kg to BALB/c mice (mean ± SE, n = 4 per time point). Tissue concentrations of c cF and d c2 following sc administration determined in the liver (blue) and kidney (brown) (mean ± SE). Dashed lines indicate estimated background levels of tritium in tissues due to tissue blood content (10% of peak plasma concentration). e–i Following po administration of c2 at 100 mg/kg to male rats (n = 5 per group), levels of c2 were measured in e plasma, f kidney, g faeces, h urine and i liver at timepoints indicated via LCMS/MS (mean ± SE). j Serum enzyme levels of markers of kidney function (creatinine), liver damage (AST and ALT) and heart damage (CK) in PCa xenograft model mice in response to treatment with vehicle (po, 3 x weekly for 6.1 ± 1.6 weeks), cF (10 mg/kg, po, 3 x weekly for 5.4 ± 0.9 weeks) or c2 (10 mg/kg, po, 3 x weekly for 4.8 ± 0.8 weeks) (n = 4, mean ± SE). Data were obtained by the South Eastern Area Laboratory Services Pathology Laboratory at Prince of Wales Hospital, Randwick, Australia. k PCa cell lines LNCaP, PC-3, and DU145 cells incubated with 100 µM c2 (green) for 24 hours with DAPI (blue), scale bar 10 µm (representative cells of n = 3 biological replicates, 5 cells per replicate).
A key failing of previous enzymatic inhibitors of hGIIA was toxicity, resulting in increased incidence of myocardial infarction in a phase III clinical trial. Thus, the toxicity profile of novel hGIIA inhibitors is critically important in evaluating new inhibitors. […] Extensive histopathology was performed on all animals in the control and high dose groups sacrificed on day 29, with no difference observed between the treated groups and the vehicle control group by any measure. […] In light of the toxicity associated with the myocardial infarction study, data from this c2 toxicity study relevant to heart toxicity are shown in Table 1. Heart wet weight was not affected by either low or high dose relative to vehicle, indicating the compound has no significant pro-hypertrophy effect at these doses. The lack of effect of c2 on gross necropsy or histopathology scores also supports the preclinical safety of the compound in the heart. Importantly, c2 has no effect on serum potassium levels or the Na/K ratio, since hypokalemia (low potassium) is highly arrythmogenic. […] It is of interest also that serum alanine transaminase is unaffected by c2 at the doses tested, since this marker was raised three-fold over the normal range in 6.3-fold more patients on varespladib than placebo in the VISTA acute coronary syndrome trial of this sPLA2 inhibitor [13].

[4] = Day 43, Gr 5 recovery, 20 mg/kg

With CC(C)C[C@@H]1NC(=O)[C@H](Cc2ccc3ccccc3c2)NC(=O)[C@H](CCCNC(=N)N)NC(=O)[C@H](Cc2ccc3ccccc3c2)NC(=O)[C@H](CO)NC1=O [c2, cyclo-((2-Nal)-Leu-Ser-(2-Nal)-Arg)] (cyclo([2Nal]LS[2Nal]R)) the “distribution after oral dosing” value [1] was “presence in the plasma, kidney and liver”, the excretion [1] was “majority excreted in faeces” and the “time of peak in urine” value [1] was 2 h. The Hb ([2]; Day 29, Gr 2, 1 mg/kg) was 157 ± 4.7 g/L, the PLT ([2]; Day 29, Gr 2, 1 mg/kg) was 1184 ± 127.7 x 109 / L and the MCHC ([2]; Day 29, Gr 2, 1 mg/kg) was 344 ± 5.1 g/L. For the same molecule, the Hb ([2]; Day 29, Gr 3, 20 mg/kg) was 159 ± 3.0 g/L, the PLT ([2]; Day 29, Gr 3, 20 mg/kg) was 1191 ± 93.8 x 109 / L and the MCHC ([2]; Day 29, Gr 3, 20 mg/kg) was 351 ± 4.0 g/L. The blood haematology ([2]; Day 29 and Day 43) was “no obvious test item related effect”, the Baso [2, 4] was 0 L⁻¹ and the Hb [2, 4] was 154 ± 1.8 g/L. For the same molecule, the PLT [2, 4] was 1182 ± 143.7 x 109 / L, the MCHC [2, 4] was 353 ± 4.2 g/L and the “serum creatinine, aspartate aminotransferase, alanine aminotransferase, creatine kinase levels” value ([3]; 10 mg/kg po thrice weekly) was “no significant changes”. The damage to organs ([3]; 10 mg/kg thrice weekly for 10 weeks) was “no observable damage to organs” and the gross toxicity ([3]; max dosages of 10 mg/kg thrice weekly for 10 weeks) was “No gross toxicity”.
